Consider one molecule from patent US20150258043A1, “USE OF SPHINGOID LONG CHAIN BASES AND THEIR ANALOGS IN TREATING AND PREVENTING BACTERIAL INFECTIONS” (YEDA RESEARCH AND DEVELOPMENT CO. LTD., priority 2012, published 2015).

In one experiment the test system is P. aeruginosa. Briefly: Sytox green staining (membrane permeabilization of bacteria). The experiment is classed as cell-based, Pseudomonas aeruginosa. To be noted: 50 μM in 1% DMSO, 30 min. As to the method:
FIGS. 4A-D. The ceramide/sphingosine ratio regulates P. aeruginosa growth. (A) Representative image of two independent experiments (left hand panel) after addition of Sytox green (1 μM) for 30 min in the absence or presence of 50 μM sphingosine or 50 μM C16-ceramide (C16-Cer) in 1% DMSO. Fluorescent and thus permeabilised bacteria were quantified (right hand panel). (B-D) The inhibitory effect of sphingosine on the growth of P. aeruginosa strain 762 is decreased in vitro and in vivo by C16-ceramide. (B) Bacteria were incubated with 10 μM sphingosine, and increasing concentrations of C16-ceramide, and growth was determined by counting colony forming unit (CFU) after 24 hrs growth on LB agar plates. Number of bacteria in the lung (C) and sickness score (D) of CF mice or WT mice inhaled with either sphingosine or a combination of sphingosine and C16-ceramide 1 h before (b.i.) with 10^8 P. aeruginosa CFU strain 762. Data are means±s.d., n=3 in (A,B) and n=4 in (C,D).
Bacteria at early logarithmic phase were incubated in the presence or absence of sphingosine or C16-ceramide (C16-cer) (50 μM in 1% DMSO) for 30 minutes at 37° C. […] Sample were examined under fluorescence microscope, and bacteria were counted both in bright field and under green fluorescent filter in two independent experiments.

Experiment [1] deals with sphingosine and ceramide on tracheal and bronchial epithelial cells. In words: Sphingosine and ceramide levels in airway epithelial cells after inhalation (immunostaining, in situ kinase assays). More on the design: species or system mouse. To be noted: CF (and CerS2 null) mice, in vivo inhalation. As to the method: Sphingosine levels were determined in the trachea and lung of wildtype (wt), Cftr- and CerS2 null mice (Teichgräber, V. et al. Nat Med 2008, 14, 382-391; Pewzner-Jung et al. J Biol Chem. 2010 Apr. 2; 285(14):10902-10) and human nasal tissues by (i) confocal microscopy analysis of paraffin sections stained with Cy3-coupled anti-sphingosine antibodies and (ii) by newly developed biochemical assays that employed sphingosine kinase assays to determine sphingosine in freshly isolated tracheal epithelial cells and on the surface of tracheal epithelial cells in situ. In the latter experiments the intact trachea was carefully opened and incubated with sphingosine kinase in the presence of [^32]PγATP. Lipids were extracted and the concentration of sphingosine-1-[^32]P was determined. In addition, surface sphingosine was immunoprecipitated from the surface of tracheal epithelial cells by binding of anti-sphingosine antibodies to the intact inner surface of the trachea, followed by washing, lysis, immobilization of immune complexes, extraction of bound sphingosine and quantification of sphingosine by kinase assays. […]
Mice were sacrificed and the trachea immediately removed. […] The TLC plates were exposed to radiography films, the spots were removed from the plates, and the incorporation of [^32P] into ceramide was measured by liquid scintillation counting. […]

Molecules are shown by their SMILES.

For `CCCCCCCCCCCCC/C=C/[C@@H](O)[C@@H](N)CO` (stereo in doubt) [D-erythro-Sphingosine, (2S,3R)-2-aminooctadec-4-ene-1,3-diol], the “Sytox green fluorescence of bacteria” value with P. aeruginosa was “large increase in fluorescence”. Further, the “sphingosine levels on airway epithelial cells after inhalation” value in experiment [1] was “restored sphingosine levels”.
